From patent US20060002866A1, “Method for protecting the skin from aging” (priority 2002, published 2006)

Tested on: lumican mRNA in MRC5 fibroblasts
Assay: Stimulation of the lumican mRNA content in MRC5 fibroblasts (Northern Blot)
Type: cell-based, human
Details: for Mean value [mRNA lumican/36B4 mRNA]: MRC5 fibroblasts, lumican mRNA against housekeeping gene 36B4 mRNA
Method: Northern Blot technique for determining the RNA messengers in cells of low molecular weight proteoglycans, such as lumican and syndecan.
The stimulation of the lumican mRNA content in MRC5 fibroblasts incubated with increasing concentrations of the growth factor IGF-1 (Insulin-like Growth Factor 1, Sigma-Aldrich) was investigated. The content of mRNA of the proteoglycan lumican in cultures of human fibroblasts—MRC5 fibroblasts—was determined by the Northern Blot method.

For “IGF-1: growth factor IGF-1 (Insulin-like Growth Factor 1, Sigma-Aldrich)”, the “Mean value [mRNA lumican/36B4 mRNA]” value (IGF-1 0.1 ng/ml) was 1.38, the “Mean value [mRNA lumican/36B4 mRNA]” value (IGF-1 1 ng/ml) was 2 and the “Mean value [mRNA lumican/36B4 mRNA]” value (IGF-1 10 ng/ml) was 3.2. For the same substance, the “Effect on mRNA content for lumican” value (cultures of MRC5 fibroblasts) was “increases the mRNA content for lumican”.
